From patent US4120864A, “1,2,4-4H-triazole derivatives” (Rohm and Haas Company, priority 1972, dated 1978)
Structures can show the parent of a compound that is named as a salt. Where two headings read alike, the source gives them in different places.

What was measured:
Assay type in all cases: in vivo
[1] = system: wheat leaf rust, Puccinia recondita; assay: whole plant or invertebrate; conditions: foliar; for pest or weed control at 280.212 g/ha: read-out: % Control (with 1" of rain), foliar, 0.25 lb., 1" of rain; for pest or weed control at 1120.85 g/ha: read-out: % Control (with 1" of rain), foliar, 1 lb., 1" of rain
[2] = system: wheat leaf rust, Puccinia recondita
[3] = system: wheat leaf rust, Puccinia recondita; assay: whole plant or invertebrate; conditions: foliar; for pest or weed control at 280.212 g/ha: read-out: % Control (without rain), foliar, 0.25 lb.; for pest or weed control at 1120.85 g/ha: read-out: % Control (without rain), foliar, 1 lb.
[4] = system: wheat leaf rust, Puccinia recondita; assay: Foliar systemic activity on leaf rust
Text: Another type of systemic test was run in which pots of approximately 5 inch high wheat plants were sprayed with varying concentrations of the test compound. Thirty-six hours later they were sprayed six minutes in a rain machine which amounted to about one inch of normal rainfall. The plants were then placed in a greenhouse for 7 days and then inoculated with a spore suspension of wheat leaf rust, Puccinia recondita. About 7 days later lesion counts were made on ten leaves representing the sprayed leaves and new growth from each replicate and compared with similar pots of wheat plants which were untreated with a chemical and the percent disease control determined. Disease control on the new growth is a measure of systemic activity. The commercial product known by the trademarked name Plantvax, which is 2,3-dihydro-5-carboxanilido-6-methyl-1,4-oxathiin-4,4-dioxide, was used as a standard.

| Structure (SMILES) | pest or weed control at 280.212 g/ha [1] [%] | pest or weed control at 1120.85 g/ha [1] [%] | % Systemic Wheat Leaf Rust Control ([2]; 2.5 ppm in soil) [%] | % Systemic Wheat Leaf Rust Control ([2]; 5 ppm in soil) [%] | pest or weed control at 280.212 g/ha [3] [%] | pest or weed control at 1120.85 g/ha [3] [%] | % Systemic Wheat Leaf Rust Control ([2]; 10 ppm in soil) [%] | % Rust Control, New growth ([4]; 1/2 lb./100 gal.) [%] | % Rust Control, Sprayed Leaf ([4]; 1/2 lb./100 gal.) [%] | % Rust Control, New growth ([4]; 1/6 lb./100 gal.) [%] | % Rust Control, Sprayed Leaf ([4]; 1/6 lb./100 gal.) [%] | % Rust Control, New growth ([4]; 1/12 lb./100 gal.) [%] | % Rust Control, Sprayed Leaf ([4]; 1/12 lb./100 gal.) [%] | % Systemic Wheat Leaf Rust Control ([2]; 20 ppm in soil) [%] | % Control (with 1" of rain) ([1]; 0.25 lb.) [%] | % Control (with 1" of rain) ([1]; 1 lb.) [%] | % Control (without rain) ([3]; 0.25 lb.) [%] | % Control (without rain) ([3]; 1 lb.) [%] |
| --- | --- | --- | --- | --- | --- | --- | --- | --- | --- | --- | --- | --- | --- | --- | --- | --- | --- | --- |
| CCCn1cnnc1 [Example 1, 4-n-propyl-1,2,4-triazole] | 87 | 100 | 99 | 100 | 100 | 100 | – | – | – | – | – | – | – | – | – | – | – | – |
| CCCCn1cnnc1 [Example 3, 4-n-butyl-1,2,4-triazole] | 100 | 100 | 100 | 100 | 100 | 100 | 100 | 100 | 99 | 98 | 99 | 85 | 97 | – | – | – | – | – |
| CC(C)Cn1cnnc1 [Example 4, 4-isobutyl-1,2,4-triazole] | 30 | 60 | – | – | 95 | 95 | – | – | – | – | – | – | – | 100 | – | – | – | – |
| CC(C)CCn1cnnc1 [Example 8, 4-isopentyl-1,2,4-triazole] | 98 | 100 | – | – | 98 | 99 | – | – | – | – | – | – | – | 100 | – | – | – | – |
| CCCCCCn1cnnc1 [Example 9, 4-n-hexyl-1,2,4-triazole] | 100 | 100 | 77 | 92 | 100 | 100 | – | – | – | – | – | – | – | – | – | – | – | – |
| COCCCn1cnnc1 [Example 46, 4-(3-methoxypropyl)-1,2,4-triazole] | 99 | 100 | 96 | 99 | 100 | 100 | – | – | – | – | – | – | – | – | – | – | – | – |
| c1ccc(Cn2cnnc2)cc1 [Example 49, 4-benzyl-1,2,4-triazole] | 100 | 100 | 96 | 98 | 95 | 100 | 99 | 87 | 99 | 54 | 76 | 46 | 42 | – | – | – | – | – |
| Clc1ccc(-n2cnnc2)cc1Cl [Example 57, 4-(3,4-dichlorophenyl)-1,2,4-triazole] | 40 | 60 | 54 | – | 80 | 90 | 68 | – | – | – | – | – | – | – | – | – | – | – |
| Clc1ccc(-n2cnnc2)nc1 [Example 63, 4-(5-chloro-2-pyridyl)-1,2,4-triazole] | 45 | 85 | – | – | 90 | 95 | – | – | – | – | – | – | – | 95 | – | – | – | – |
| CCCn1cnnc1S [Example 75, 3-mercapto-4-n-propyl-1,2,4-triazole] | 100 | 99 | 40 | 82 | 91 | 100 | 84 | – | – | – | – | – | – | – | – | – | – | – |
| CCCCCn1cnnc1S [Example 78, 3-mercapto-4-n-pentyl-1,2,4-triazole] | 100 | 100 | 97 | 97 | 97 | 100 | 97 | 92 | 98 | 79 | 96 | 57 | 91 | – | – | – | – | – |
| CCCCCCn1cnnc1S [Example 79, 3-mercapto-4-n-hexyl-1,2,4-triazole] | 100 | 100 | 0 | 0 | 100 | 100 | 54 | 65 | 96 | 48 | 88 | 38 | 85 | – | – | – | – | – |
| Sc1nncn1Cc1ccccc1 [Example 84, 3-mercapto-4-benzyl-1,2,4-triazole] | 100 | 100 | 0 | 34 | 100 | 100 | 64 | 54 | 78 | 34 | 63 | 36 | 54 | – | – | – | – | – |
| CCCCn1c(S)nnc1C(=O)O [Example 95, triethanolamine salt of 3-mercapto-4-n-butyl-5-carboxy-1,2,4-triazole] | – | – | 98 | 99 | – | – | 100 | 90 | 90 | 75 | 78 | 63 | 46 | – | 100 | 100 | 98 | 99 |
| CCCCn1c(S)nnc1C(=O)OCC [Example 98, sodium salt of 3-mercapto-4-butyl-5-ethoxycarbonyl-1,2,4-triazole] | – | – | 85 | 97 | – | – | 99 | – | – | – | – | – | – | – | 100 | 100 | 86 | 100 |
| CCCCn1c(SC(=S)N(C)C)nnc1C(=O)O [Example 101, 3-dimethylthiocarbamoylmercapto-4-n-butyl-5-carboxy-1,2,4-triazole] | 100 | 100 | 88 | 96 | 100 | 100 | 100 | – | – | – | – | – | – | – | – | – | – | – |
| CCCCn1cnn(CCC#N)c1=S [Example 106, 2-(2-cyanoethyl)-4-n-butyl-1,2,4-triazoline-3-thione] | 99 | 100 | 82 | 86 | 100 | 100 | 92 | – | – | – | – | – | – | – | – | – | – | – |
| CCCCn1cnnc1SC(=O)c1ccco1 [Example 124, 3-furoylmercapto-4-n-butyl-1,2,4-triazole] | 100 | 100 | 94 | 99 | 100 | 100 | 99 | – | – | – | – | – | – | – | – | – | – | – |
| CCCCn1cnnc1SCC(=O)c1ccc(OC)cc1 [Example 125, 3-(p-methoxyphenacylmercapto)-4-n-butyl-1,2,4-triazole] | 20 | 30 | 55 | 68 | 50 | 60 | 44 | – | – | – | – | – | – | – | – | – | – | – |
| N#CCCn1ncn(-c2ccccc2)c1=S [Example 126, 2-(2-cyanoethyl)-4-phenyl-1,2,4-triazoline-3-thione] | 83 | 96 | – | – | 93 | 96 | – | 42 | 13 | 27 | 0 | 0 | 0 | – | – | – | – | – |
| O=[N+]([O-])c1ccc(Sc2nncn2-c2ccccc2)c([N+](=O)[O-])c1 [Example 128, 3-(2,4-dinitrophenylmercapto)-4-phenyl-1,2,4-triazole] | 84 | 90 | – | – | 100 | 100 | – | – | – | – | – | – | – | – | – | – | – | – |
| COc1ccc(C(=O)Sc2nncn2-c2ccccc2)cc1 [Example 129, 3-(4-methoxybenzoylmercapto)-4-phenyl-1,2,4-triazole] | 100 | 99 | – | – | 100 | 100 | – | – | – | – | – | – | – | – | – | – | – | – |
